#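 All cell lines were grown in 96-well plates and treated with compound for 48 hours. At the GI50, growth is halved.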 Active and inactive are the calls of the source. Cut-off read from the data, not from the text of the source: active = GI50 up to about 1.1 µM and inactive = higher. Peptide text beside a SMILES is read from it.
# Key:
# Experiment in all cases: growth of human tumour cells (NCI), 48 h
# DU-145 = system: DU-145
# EKVX = system: EKVX
# HCT-116 = system: HCT-116
# HOP-62 = system: HOP-62
# HOP-92 = system: HOP-92
# IGROV-1 = system: IGROV-1
# LOX IMVI = system: LOX IMVI
# MCF7 = system: MCF7
# MDA-MB-435 = system: MDA-MB-435
# NCI-H23 = system: NCI-H23
# NCI/ADR-RES = system: NCI/ADR-RES
# OVCAR-3 = system: OVCAR-3
# OVCAR-8 = system: OVCAR-8
# PC-3 = system: PC-3
# RXF 393 = system: RXF 393
# SF-268 = system: SF-268
# SK-MEL-28 = system: SK-MEL-28
# SK-MEL-5 = system: SK-MEL-5
# SNB-19 = system: SNB-19
# SNB-75 = system: SNB-75
Structure (SMILES),GI50 (DU-145),GI50 (EKVX),GI50 (HCT-116),GI50 (HOP-62),GI50 (HOP-92),GI50 (IGROV-1),GI50 (LOX IMVI),GI50 (MCF7),GI50 (MDA-MB-435),GI50 (NCI-H23),GI50 (NCI/ADR-RES),GI50 (OVCAR-3),GI50 (OVCAR-8),GI50 (PC-3),GI50 (RXF 393),GI50 (SF-268),GI50 (SK-MEL-28),GI50 (SK-MEL-5),GI50 (SNB-19),GI50 (SNB-75)
CCOC(=O)c1cc2c([N+](=O)[O-])c(N)ccc2s1,> 100 µM (inactive),57 µM (inactive),> 100 µM (inactive),> 100 µM (inactive),> 100 µM (inactive),> 100 µM (inactive),> 100 µM (inactive),> 100 µM (inactive),> 100 µM (inactive),> 100 µM (inactive),> 100 µM (inactive),> 100 µM (inactive),> 100 µM (inactive),> 100 µM (inactive),> 100 µM (inactive),> 100 µM (inactive),> 100 µM (inactive),> 100 µM (inactive),> 100 µM (inactive),72.3 µM (inactive)
O=C1/C(=C/c2ccc(Cl)cc2)CCC1CN1CCOCC1 (stereo not given),11.5 µM (inactive),12.2 µM (inactive),4.2 µM (inactive),16.1 µM (inactive),3.96 µM (inactive),6.32 µM (inactive),2.28 µM (inactive),3.77 µM (inactive),4.6 µM (inactive),9.14 µM (inactive),4.88 µM (inactive),6.37 µM (inactive),6.68 µM (inactive),6.19 µM (inactive),3.76 µM (inactive),14.3 µM (inactive),8 µM (inactive),12.5 µM (inactive),14.8 µM (inactive),20.5 µM (inactive)
Cc1ccc([S@+]([O-])c2occc2C=O)cc1,19 µM (inactive),19.8 µM (inactive),3.03 µM (inactive),17.5 µM (inactive),3.27 µM (inactive),11.7 µM (inactive),1.81 µM (inactive),3.48 µM (inactive),7.55 µM (inactive),14.5 µM (inactive),11 µM (inactive),2.81 µM (inactive),9.93 µM (inactive),5.02 µM (inactive),13.3 µM (inactive),5.38 µM (inactive),3.82 µM (inactive),10.4 µM (inactive),5.07 µM (inactive),12.1 µM (inactive)
C/C1=C\[C@H](C)C[C@H](C)OC(=O)[C@H](C)NC(=O)[C@@H](Cc2ccc(O)c(Br)c2)N(C)C(=O)[C@H](C)NC(=O)[C@@H](C)C1,0.155 µM (active),0.0652 µM (active),0.00382 µM (active),0.0139 µM (active),0.0533 µM (active),0.0152 µM (active),0.00533 µM (active),0.0479 µM (active),0.0735 µM (active),0.462 µM (active),0.126 µM (active),0.0179 µM (active),0.147 µM (active),0.0335 µM (active),0.0656 µM (active),0.0331 µM (active),0.00659 µM (active),0.0127 µM (active),0.184 µM (active),0.0184 µM (active)
CCOC(=O)/C(C#N)=C/c1ccc2c(-c3c(OCC)ccc4cc(/C=C(\C#N)C(=O)OCC)ccc34)c(OCC)ccc2c1,> 100 µM (inactive),> 100 µM (inactive),> 100 µM (inactive),> 100 µM (inactive),> 100 µM (inactive),> 100 µM (inactive),> 100 µM (inactive),> 100 µM (inactive),> 100 µM (inactive),> 100 µM (inactive),> 100 µM (inactive),> 100 µM (inactive),> 100 µM (inactive),> 100 µM (inactive),> 100 µM (inactive),> 100 µM (inactive),> 100 µM (inactive),> 100 µM (inactive),> 100 µM (inactive),> 100 µM (inactive)
CCC(C)C(NC(=O)C(NC(=O)C(CC(N)=O)NC(=O)CN)C(C)O)C(=O)NC(C(=O)NC(C)C(=O)NC(C(=O)NC(CCC(=O)O)C(=O)NC(CC(C)C)C(=O)NC(CC(=O)O)C(=O)NC(C(=O)NC(Cc1ccc(O)cc1)C(=O)N1CCCC1C(=O)O)C(C)O)C(C)C)C(C)C (stereo not given) (H-GNTIVAVELDTYP-OH; configuration not given here),> 50 µM (inactive),> 50 µM (inactive),> 50 µM (inactive),> 50 µM (inactive),> 50 µM (inactive),> 50 µM (inactive),> 50 µM (inactive),> 50 µM (inactive),> 50 µM (inactive),> 50 µM (inactive),> 50 µM (inactive),> 50 µM (inactive),> 50 µM (inactive),> 50 µM (inactive),> 50 µM (inactive),> 50 µM (inactive),> 50 µM (inactive),> 50 µM (inactive),> 50 µM (inactive),> 50 µM (inactive)
CN(C)c1ccc(/N=N/c2ccccn2)cc1,48.6 µM (inactive),11.9 µM (inactive),6.67 µM (inactive),71 µM (inactive),69.8 µM (inactive),5.93 µM (inactive),57.5 µM (inactive),3.18 µM (inactive),23.4 µM (inactive),14.2 µM (inactive),5.04 µM (inactive),4.21 µM (inactive),38.9 µM (inactive),3.97 µM (inactive),> 100 µM (inactive),51.2 µM (inactive),> 100 µM (inactive),15.4 µM (inactive),58.6 µM (inactive),52.1 µM (inactive)
CC(=O)OCC1=C(C(=O)O)N2C(=O)C(NC(=O)CSc3ccncc3)C2SC1 (stereo not given),> 100 µM (inactive),> 100 µM (inactive),> 100 µM (inactive),> 100 µM (inactive),> 100 µM (inactive),> 100 µM (inactive),> 100 µM (inactive),> 100 µM (inactive),> 100 µM (inactive),> 100 µM (inactive),> 100 µM (inactive),> 100 µM (inactive),> 100 µM (inactive),> 100 µM (inactive),> 100 µM (inactive),> 100 µM (inactive),> 100 µM (inactive),> 100 µM (inactive),> 100 µM (inactive),> 100 µM (inactive)
Fc1ccc(N2C(=S)SC(=N\c3ccccc3)/C2=N/c2ccccc2)cc1,> 100 µM (inactive),97.5 µM (inactive),17.5 µM (inactive),> 75 µM (inactive),> 42.8 µM (inactive),> 43.8 µM (inactive),> 100 µM (inactive),> 73.8 µM (inactive),> 100 µM (inactive),> 71.9 µM (inactive),> 92.7 µM (inactive),41.6 µM (inactive),> 100 µM (inactive),> 16.7 µM (inactive),> 100 µM (inactive),> 100 µM (inactive),> 100 µM (inactive),41.3 µM (inactive),> 100 µM (inactive),> 100 µM (inactive)
CC(C)C(C/C=C1\CC(CO)(COC(=O)C(C)(C)C)OC1=O)C(C)C (stereo not given),4.65 µM (inactive),11.1 µM (inactive),10.5 µM (inactive),3.11 µM (inactive),10.3 µM (inactive),14.3 µM (inactive),2.88 µM (inactive),20.7 µM (inactive),11.9 µM (inactive),4.9 µM (inactive),13.6 µM (inactive),12.6 µM (inactive),14.8 µM (inactive),5.05 µM (inactive),15.6 µM (inactive),13.2 µM (inactive),13.2 µM (inactive),3.72 µM (inactive),13 µM (inactive),1.84 µM (inactive)
CS(=O)(=O)O.[Ag],17.1 µM (inactive),21.9 µM (inactive),5.04 µM (inactive),25.4 µM (inactive),2.14 µM (inactive),1.6 µM (inactive),3.09 µM (inactive),4.03 µM (inactive),2.91 µM (inactive),23.2 µM (inactive),29.8 µM (inactive),23.8 µM (inactive),31.6 µM (inactive),14.2 µM (inactive),18.8 µM (inactive),16 µM (inactive),18.4 µM (inactive),5.3 µM (inactive),29.3 µM (inactive),12.3 µM (inactive)
CCCOc1ccc2sc(NC(=O)c3cc([N+](=O)[O-])cc([N+](=O)[O-])c3)nc2c1,60.7 µM (inactive),19.4 µM (inactive),20.6 µM (inactive),78.9 µM (inactive),16 µM (inactive),10.6 µM (inactive),20.8 µM (inactive),40.2 µM (inactive),36.7 µM (inactive),23 µM (inactive),22.6 µM (inactive),26.3 µM (inactive),31.3 µM (inactive),28.4 µM (inactive),48.4 µM (inactive),43.8 µM (inactive),50.5 µM (inactive),17 µM (inactive),42.5 µM (inactive),30.5 µM (inactive)
C=C1C(=O)OC2CC(C)C(C(CC(C)=O)OC(C)=O)=CCC12 (stereo not given),16.5 µM (inactive),11.8 µM (inactive),1.79 µM (inactive),21 µM (inactive),6.87 µM (inactive),13.3 µM (inactive),6.78 µM (inactive),4.74 µM (inactive),16.3 µM (inactive),17.2 µM (inactive),13.8 µM (inactive),7.06 µM (inactive),18.9 µM (inactive),19.3 µM (inactive),15.9 µM (inactive),22.5 µM (inactive),8.24 µM (inactive),14.2 µM (inactive),36.6 µM (inactive),23.1 µM (inactive)

# — ChEMBL document CHEMBL1201862, “PubChem BioAssay data set” (2004)
